The source of these data is ChEMBL document CHEMBL5550160, “Leveraging a rationally designed veliparib-based anilide eliciting anti-leukemic effects for the design of pH-responsive polymer nanoformulation” (Eur J Med Chem, 2024).

The structures appear in SMILES notation. The source made the active and inactive calls. No cut-off for these calls is given here.

In general, IC50 refers to the concentration needed to halve the response being measured. Read a low IC50 as inhibition by little substance.

The target in test [1] is T1, Histone deacetylase 1 (Homo sapiens, UniProt Q13547). Nature of the test: Inhibition of HDAC1 (unknown origin) using p53 residues 379 to 382 [RHKK(Ac)] as fluorogenic substrate assessed as residual activity at 1.23 x 10^-7M (reference value: 98.06%). Particulars: dose 1.23 10^-7M.
For test [2], the target named is T2, Polyamine deacetylase HDAC10 (Homo sapiens) (UniProt Q969S8).
T2 sequence (whole entry): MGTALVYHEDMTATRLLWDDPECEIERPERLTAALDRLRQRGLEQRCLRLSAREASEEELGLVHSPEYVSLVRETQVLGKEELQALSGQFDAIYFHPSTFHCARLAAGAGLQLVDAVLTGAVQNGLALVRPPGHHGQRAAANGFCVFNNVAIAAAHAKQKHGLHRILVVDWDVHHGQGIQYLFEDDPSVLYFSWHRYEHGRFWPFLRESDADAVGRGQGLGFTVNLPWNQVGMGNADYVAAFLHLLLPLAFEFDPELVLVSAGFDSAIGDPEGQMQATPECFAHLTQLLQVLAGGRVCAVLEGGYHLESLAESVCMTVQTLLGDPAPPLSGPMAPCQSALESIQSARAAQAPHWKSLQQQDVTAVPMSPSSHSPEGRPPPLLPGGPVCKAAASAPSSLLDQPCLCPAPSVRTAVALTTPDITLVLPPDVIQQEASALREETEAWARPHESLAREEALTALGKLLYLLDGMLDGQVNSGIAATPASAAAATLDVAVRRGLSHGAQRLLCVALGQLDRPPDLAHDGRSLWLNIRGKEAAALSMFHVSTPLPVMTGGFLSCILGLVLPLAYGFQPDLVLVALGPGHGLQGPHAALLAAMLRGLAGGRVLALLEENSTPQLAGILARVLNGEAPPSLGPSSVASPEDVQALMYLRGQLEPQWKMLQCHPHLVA
The experiment in a line: Inhibition of HDAC10 (unknown origin) assessed as residual activity at 4.12 x 10^-8M (reference value: 101.54%). Particulars: dose 4.12 10^-8M.

Test [3] has as its target Histone deacetylase 4 (Homo sapiens) (UniProt P56524). The experiment in a line: Inhibition of HDAC4 (unknown origin) assessed as residual activity at 3.33 x 10^-6M (reference value: 98.90%). Particulars: dose 3.33 10^-6M.
Another test relates to A549. The experiment in a line: cells. The test is classed as functional, cell-based. Particulars: Homo sapiens.
Test [4] deals with Histone deacetylase 5 (Homo sapiens) (UniProt Q9UQL6). The experiment in a line: Inhibition of HDAC5 (unknown origin) assessed as residual activity at 3.70 x 10^-7M (reference value: 100%). As to conditions: dose 3.7 10^-7M.
Test [5] has the same target. Nature of the test: Inhibition of HDAC5 (unknown origin) assessed as residual activity at 4.57 x 10^-9M (reference value: 100%). Particulars: dose 4.57 10^-9M.
Test [6] concerns the target T1, Histone deacetylase 1. Nature of the test: Inhibition of HDAC1 (unknown origin) using p53 residues 379 to 382 [RHKK(Ac)] as fluorogenic substrate assessed as residual activity at 3.33 x 10^-6M (reference value: 98.06%). As to conditions: dose 3.33 10^-6M.
The target of test [7] is T3, Histone deacetylase 8 (Homo sapiens) (UniProt Q9BY41).
T3 sequence (whole entry): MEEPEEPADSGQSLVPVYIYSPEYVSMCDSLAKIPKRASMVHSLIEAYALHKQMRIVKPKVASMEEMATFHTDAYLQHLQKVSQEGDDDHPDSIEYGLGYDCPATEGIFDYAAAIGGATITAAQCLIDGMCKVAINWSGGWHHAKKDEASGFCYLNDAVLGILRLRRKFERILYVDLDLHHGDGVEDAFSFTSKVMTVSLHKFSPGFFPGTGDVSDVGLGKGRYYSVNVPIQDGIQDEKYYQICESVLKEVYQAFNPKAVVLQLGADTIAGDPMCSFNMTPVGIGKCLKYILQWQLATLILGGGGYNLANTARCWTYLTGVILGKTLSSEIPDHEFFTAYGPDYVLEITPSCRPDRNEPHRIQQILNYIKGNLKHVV
The experiment in a line: Inhibition of HDAC8 (unknown origin) assessed as residual activity at 5.08 x 10^-10M (reference value: 100%). As to conditions: dose 5.08 10^-10M.

The subject of test [8] is HL-60. The experiment in a line: Induction of autophagy in human HL-60 cells assessed as increase in autophagic flux by measuring increase in red-stained cells at 0.5 to 1 times IC50 by acridine orange staining based microscopic analysis. The test is classed as functional, cell-based.
The target in test [9] is T4, Histone deacetylase 3 (Homo sapiens, UniProt O15379). The experiment in a line: Inhibition of HDAC3 (unknown origin) using p53 residues 379 to 382 [RHKK(Ac)] as fluorogenic substrate assessed as residual activity at 1 x 10^-5M (reference value: 103.08%). As to conditions: dose 1.0 10^-5M.
Test [10] relates to HL-60. The experiment in a line: Downregulation of PAR protein expression in human HL-60 cells at 0.5 to 1 times IC50 measured after 24 hrs by Western blot analysis. The test is classed as functional, cell-based. (A western blot detects proteins with antibodies after separation by electrophoresis.)
Test [11] has as its target T4, Histone deacetylase 3. Nature of the test: Inhibition of HDAC3 (unknown origin) using p53 residues 379 to 382 [RHKK(Ac)] as fluorogenic substrate assessed as residual activity at 4.57 x 10^-9M (reference value: 103.08%). As to conditions: dose 4.57 10^-9M.

T4 sequence (O15379 whole entry, the tested form may be a part): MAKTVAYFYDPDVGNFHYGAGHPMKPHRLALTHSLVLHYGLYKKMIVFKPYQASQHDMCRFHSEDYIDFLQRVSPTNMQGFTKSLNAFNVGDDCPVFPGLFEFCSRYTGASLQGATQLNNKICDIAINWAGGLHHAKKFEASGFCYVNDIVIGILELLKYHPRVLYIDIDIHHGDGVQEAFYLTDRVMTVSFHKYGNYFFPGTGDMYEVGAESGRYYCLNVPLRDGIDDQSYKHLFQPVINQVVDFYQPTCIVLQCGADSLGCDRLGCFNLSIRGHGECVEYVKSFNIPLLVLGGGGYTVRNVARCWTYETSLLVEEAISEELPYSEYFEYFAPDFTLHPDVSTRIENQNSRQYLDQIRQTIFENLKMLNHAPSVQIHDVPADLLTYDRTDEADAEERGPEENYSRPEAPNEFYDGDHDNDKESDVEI
T1 sequence (Q13547 whole entry, the tested form may be a part): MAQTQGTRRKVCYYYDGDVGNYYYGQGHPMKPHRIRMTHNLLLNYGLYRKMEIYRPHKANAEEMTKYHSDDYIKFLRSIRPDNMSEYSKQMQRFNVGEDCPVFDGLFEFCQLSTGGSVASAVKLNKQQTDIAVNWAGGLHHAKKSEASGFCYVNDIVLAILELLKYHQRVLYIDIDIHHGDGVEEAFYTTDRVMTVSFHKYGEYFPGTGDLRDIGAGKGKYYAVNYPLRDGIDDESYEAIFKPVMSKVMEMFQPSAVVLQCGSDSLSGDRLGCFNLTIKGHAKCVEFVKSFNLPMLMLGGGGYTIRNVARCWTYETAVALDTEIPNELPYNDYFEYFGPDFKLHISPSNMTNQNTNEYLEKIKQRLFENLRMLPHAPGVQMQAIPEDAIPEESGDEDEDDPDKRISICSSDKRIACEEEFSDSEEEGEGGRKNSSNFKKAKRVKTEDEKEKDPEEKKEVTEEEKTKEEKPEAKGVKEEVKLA
Chain of Histone deacetylase 5 (Homo sapiens) (Q9UQL6 whole entry): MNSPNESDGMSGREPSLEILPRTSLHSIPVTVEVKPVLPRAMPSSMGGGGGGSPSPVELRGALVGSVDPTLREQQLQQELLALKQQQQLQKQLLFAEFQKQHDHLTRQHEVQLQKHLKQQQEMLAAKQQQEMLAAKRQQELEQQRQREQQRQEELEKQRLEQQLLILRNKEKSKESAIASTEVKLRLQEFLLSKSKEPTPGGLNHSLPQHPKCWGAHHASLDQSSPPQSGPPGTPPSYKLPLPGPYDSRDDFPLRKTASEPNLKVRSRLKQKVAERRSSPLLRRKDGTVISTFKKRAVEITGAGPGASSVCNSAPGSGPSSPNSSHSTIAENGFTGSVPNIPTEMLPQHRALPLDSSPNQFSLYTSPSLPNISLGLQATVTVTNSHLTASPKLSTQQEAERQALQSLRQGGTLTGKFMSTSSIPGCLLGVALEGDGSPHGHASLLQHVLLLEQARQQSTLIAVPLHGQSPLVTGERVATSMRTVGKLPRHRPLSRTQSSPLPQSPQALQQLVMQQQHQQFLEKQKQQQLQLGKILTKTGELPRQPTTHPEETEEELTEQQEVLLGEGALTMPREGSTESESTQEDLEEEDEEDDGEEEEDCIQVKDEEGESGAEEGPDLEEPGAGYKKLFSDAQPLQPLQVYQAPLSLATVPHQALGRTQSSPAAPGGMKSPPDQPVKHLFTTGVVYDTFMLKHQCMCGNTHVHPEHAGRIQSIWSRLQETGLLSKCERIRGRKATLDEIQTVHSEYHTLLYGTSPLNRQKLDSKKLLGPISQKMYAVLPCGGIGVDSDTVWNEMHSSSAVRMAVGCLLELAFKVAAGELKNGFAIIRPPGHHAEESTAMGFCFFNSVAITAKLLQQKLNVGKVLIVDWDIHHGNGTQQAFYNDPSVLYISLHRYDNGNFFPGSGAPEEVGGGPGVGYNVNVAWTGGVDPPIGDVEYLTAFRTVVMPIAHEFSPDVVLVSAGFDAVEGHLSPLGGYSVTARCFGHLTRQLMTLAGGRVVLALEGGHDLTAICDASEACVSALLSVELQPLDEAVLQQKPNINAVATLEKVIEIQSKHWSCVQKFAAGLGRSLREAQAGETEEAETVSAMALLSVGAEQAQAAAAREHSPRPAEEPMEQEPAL
Chain of Histone deacetylase 4 (Homo sapiens) (P56524 whole entry): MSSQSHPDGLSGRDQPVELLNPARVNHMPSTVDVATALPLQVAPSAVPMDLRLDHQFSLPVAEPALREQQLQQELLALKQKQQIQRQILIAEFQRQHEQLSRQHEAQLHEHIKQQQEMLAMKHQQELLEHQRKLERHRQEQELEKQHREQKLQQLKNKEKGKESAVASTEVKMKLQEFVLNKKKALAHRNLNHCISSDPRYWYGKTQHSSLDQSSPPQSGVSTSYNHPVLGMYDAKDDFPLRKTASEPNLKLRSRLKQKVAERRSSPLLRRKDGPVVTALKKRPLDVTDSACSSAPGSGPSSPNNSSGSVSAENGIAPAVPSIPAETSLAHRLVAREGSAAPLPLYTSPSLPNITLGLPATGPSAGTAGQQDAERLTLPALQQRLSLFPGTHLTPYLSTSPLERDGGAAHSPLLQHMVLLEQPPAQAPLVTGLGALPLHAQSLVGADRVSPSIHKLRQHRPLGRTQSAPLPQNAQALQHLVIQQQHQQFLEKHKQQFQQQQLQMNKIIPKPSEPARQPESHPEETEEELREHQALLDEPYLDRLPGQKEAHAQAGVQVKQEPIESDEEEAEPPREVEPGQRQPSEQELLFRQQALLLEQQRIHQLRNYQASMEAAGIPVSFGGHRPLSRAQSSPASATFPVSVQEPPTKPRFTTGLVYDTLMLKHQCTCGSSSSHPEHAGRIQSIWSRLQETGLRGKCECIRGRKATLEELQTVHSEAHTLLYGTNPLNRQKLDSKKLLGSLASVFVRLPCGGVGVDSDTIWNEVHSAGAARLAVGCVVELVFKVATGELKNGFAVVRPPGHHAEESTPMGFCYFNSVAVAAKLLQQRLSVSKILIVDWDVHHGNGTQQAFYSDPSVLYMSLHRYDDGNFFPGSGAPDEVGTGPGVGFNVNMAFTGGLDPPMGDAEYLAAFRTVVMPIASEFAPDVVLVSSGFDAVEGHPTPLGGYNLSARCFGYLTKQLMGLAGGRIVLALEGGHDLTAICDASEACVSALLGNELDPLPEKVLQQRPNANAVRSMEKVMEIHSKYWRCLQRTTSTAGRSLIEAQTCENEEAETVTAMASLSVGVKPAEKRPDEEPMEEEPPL
Description for A549: Antiproliferative activity against human A549 cells assessed as inhibition of cell growth by MTT assay

Take `NC(=O)c1cccc2[nH]c(-c3ccc(NCc4ccc(C(=O)Nc5ccccc5N)cc4)cc3)nc12`: the Activity on Histone deacetylase 1 [1] was determined as 31.3%; in test [2] it was 102%; in test [3] it was 94.3%; in [4] it was 77.6%; in test [5], 82.1%; at Histone deacetylase 1 [6], 6.73%. For the same molecule, the Activity is 105% in test [7], 20.7% on Histone deacetylase 3 [9], “Dose-Dependent Effect” with HL-60 [10] and 111% at Histone deacetylase 3 [11]. Moreover, the IC50 with A549 was > 5 µM. The result in the test with HL-60 [8] was Active.
